Data published in patent US20090136521A1, “Method for Selectively Depleting Hypoxic Cells” (Genetix Pharmaceuticals , Inc., priority 2005, published 2009).
Entries after “also recorded” stand apart in the source; their conditions may differ.

Key:
[1] = test system: Cobblestone Area Forming Cell (CAFC) subsets in bone marrow; experiment: Cobblestone Area Forming Cell (CAFC) content of bone marrow after in vivo treatment; parameters: species or system mice
Procedure: FIG. 8 is a depiction of CAFC content per hind limb expressed as percent of untreated (saline injected) control following 4×30 mg/kg tirapazamine (TPZ) 2×10 mg/kg Busulfex (BX) or 4 Gy gamma-irradiation. Data represents the mean of bone marrow cell samples pooled from 3-4 individual mice with 95% confidence limits.
5-FU was administered i.p. to B6 recipients at a single dose of 150 mg/kg. At 2 days, the femoral and tibial bone marrow was harvested, pooled from mice and plated for estimate of CAFC content per hind limb. Error bars represent 95% confidence intervals.
Mice: C57BL/6J male mice (with Ly 5.2 marker) obtained from Jackson Laboratories were used for most of the experiments proposed. Mice were maintained in a specific pathogen-free microisolator environment. For some in vivo repopulation assays, B6.5JL-Ptprc^a Pep3^b/BoyJ congenic mice (with Ly5.1 marker) obtained from Jackson Laboratories were used as donors. Bone marrow, thymus, harvest: Bone marrow cells were harvested from mice by crushing the tibias and femurs from the hind limbs in HBSS containing 2% FBS and […] HEPES buffer (HBSS+). Bone marrow cells, thymocytes and splenocytes were passed through 21 gauge needles to get single cell suspensions. The cellularity of bone marrow and thymus was measured by counting total live cells (using trypan blue) and total WBCs (using crystal violet in 3% acetic acid) on a hemocytometer. Measurement of Hoechst perfusion in vivo in mice: The Hoechst dye perfusion in mice was done according to methods previously described in the literature (Durand et al., 1990; Olive et al., 2000; Olive et al., 2002). Briefly, C57BL/6J mice were injected i.v. via the retro-orbital sinus under isoflurane anesthesia with two doses (0.8 mg/mouse) of Hoechst dye (Sigma) at 10 and 5 min before bone marrow harvesting, a period determined to be insufficient for active dye exclusion in vitro. Tibias and femurs were placed immediately on ice, crushed in a pre-cooled mortar and pestle, filtered and suspended in cold HBSS+. Thymus was harvested and thymocyte cell suspension made by passing the cells through 21 gauge needle. The dual emission wavelength of Hoechst fluorescence in bone marrow and thymus was assessed on a logarithmic scale using flow cytometry with exclusion of propidium iodide positive cells. Pimonidazole binding: The detection of hypoxic cells in bone marrow and thymus was done by pimonidazole binding using methods described by Olive et al. (Olive et al., 2000; Olive et al., 2002). Briefly, the mice were injected i.p. with pimonudazole hydrochloride (Chemicon International) at 120 mg/kg dose and the bone marrow as well as thymus were harvested 3 hrs post-injection. […] The fluorescent intensity for staining was measured using flow cytometry. […]

bone marrow = experiment: Hoechst dye perfusion gradient in bone marrow after 5-FU; type: in vivo, mice; details: 1 to 6 days after 5-FU; Hoechst dye i.v. 0.8 mg at 5 and 10 min; FIG. 12
Procedure: At different times after 5-FU, Hoechst dye was injected i.v. (0.8 mg at 5 and 10 min) and the bone marrow analyzed for intensity of Hoechst uptake. The plotted graph gives the red fluorescence intensity for cells at the lower 1% level to show how the Hoechst gradient is shortened at 1 to 6 days after 5-FU and provides evidence for improved oxygenation of the cells that remain after treatment.
(§1) Mice: C57BL/6J male mice (with Ly 5.2 marker) obtained from Jackson Laboratories were used for most of the experiments proposed. Mice were maintained in a specific pathogen-free microisolator environment. […] The cellularity of bone marrow and thymus was measured by counting total live cells (using trypan blue) and total WBCs (using crystal violet in 3% acetic acid) on a hemocytometer. […] Briefly, C57BL/6J mice were injected i.v. via the retro-orbital sinus under isoflurane anesthesia with two doses (0.8 mg/mouse) of Hoechst dye (Sigma) at 10 and 5 min before bone marrow harvesting, a period determined to be insufficient for active dye exclusion in vitro. […] The dual emission wavelength of Hoechst fluorescence in bone marrow and thymus was assessed on a logarithmic scale using flow cytometry with exclusion of propidium iodide positive cells. […] The fluorescent intensity for staining was measured using flow cytometry. […]

SP cells in bone marrow = experiment: Side Population (SP) cells in bone marrow after 5-FU; type: in vivo, mice; details: different times after 5-FU; FIG. 13
Procedure: At different times after 5-FU, bone marrow was harvested, nucleated cells counted and incubated in Hoechst dye for subsequent analysis on efficient (lower gate) and poor (higher gate) dye effluxing cells in the SP tail. While the percent of SP cells appeared to increase from day 1 to day 4, the cell yield continued to decrease and thus the actual number of SP cells per hind limb remained low.
as §1

HSCs = details: single dose; Harrison and Lerner, 1991; cited from earlier work

Structure (SMILES) | primitive late-forming CAFCs, bone marrow content ([1]; 5-FU single dose 150 mg/kg i.p., bone marrow at 2 days, FIG. 11) | early-forming CAFC subsets, bone marrow content ([1]; 5-FU single dose 150 mg/kg i.p., bone marrow at 2 days, FIG. 11, 150 mg/kg) | number of functional HSCs ([1]; after 5-FU) | Hoechst gradient in bone marrow (red fluorescence intensity, lower 1% level) (bone marrow) | percent and overall marrow content of SP cells (SP cells in bone marrow) | sensitivity of bone marrow HSCs capable of long-term engraftment in irradiated recipients (HSCs) | depletion of late- versus early-forming CAFC subsets (CAFC content per hind limb) ([1]; TPZ 30 mg/kg i.p. daily over 4 days, bone marrow harvested 24 hours after last treatment, FIG. 8)
O=c1[nH]cc(F)c(=O)[nH]1 [5-FU, 5-fluorouracil] | remain normal | selectively depletes early-forming CAFCs; also recorded: marked depletion | remains unaffected | considerably shortened | decreased; also recorded: dramatic decrease | resistant | –
Nc1n[n+]([O-])c2ccccc2[n+]1[O-] [Tirapazamine, 1,2,4-benzotriazin-3-amine 1,4-dioxide] | – | – | – | – | – | – | higher depletion of late-versus early-forming CAFC subsets
